In patent US9340513B2, “Propenoate derivatives of betulin” (GlaxoSmithKline LLC, priority 2011, dated 2016):

Tested on: HIV-1 (strain IIIB)
Test: MT4 Cell Antiviral Assay
Assay type: cell-based
Conditions: Human immunodeficiency virus 1, 120 h; HIV-1 strain IIIB in MT4 cells, 5 days, Cell Titer-Glo; 50% decrease in HIV-induced cytopathic effect
Method: Antiviral HIV activity and compound-induced cytotoxicity were measured in parallel based on a modified protocol of the propidium iodide based procedure in the human T-cell lymphotropic virus transformed cell line MT4. Aliquots of the test compounds were serially diluted in DMSO plated in 96-well plates. Exponentially growing MT4 cells were harvested and pelleted. Cell pellets were resuspended in fresh medium (RPMI 1640, 10% FCS, and gentamycin. Cell aliquots were infected by the addition of HIV-1 (strain IIIB) diluted to give a viral multiplicity of infection of 300×TCID50/million cells. A similar cell aliquot was diluted with medium to provide a mock-infected control. Cell infection was allowed to proceed for 1 hr at 37° C. in a tissue culture incubator with humidified 5% CO2 atmosphere. After the 1 hr incubation the virus/cell suspensions were diluted with fresh medium, and added to each well of the plate containing pre-diluted compound. Plates were then placed in a tissue culture incubator with humidified 5% CO2 for 5 days. […] The plates were analyzed in an automated plate reader for luminescence.assay. The control and standard used was efavirinz tested over a concentration range of 0.001 to 1 μM in every assay. The expected range of IC50 values for efavirinz is 0.1 to 1 nM.
The antiviral effect of a test compound is reported as an IC50, i.e. the inhibitory concentration that would produce a 50% decrease in the HIV-induced cytopathic effect. This effect is measured by the amount of test compound required to restore 50% of the cell growth of HIV-infected MT4 cells, compared to uninfected MT4 cell controls. IC50 was calculated by RoboSage, Automated Curve Fitting Program.
For each assay plate, the results (of wells containing uninfected cells or infected cells with no compound were averaged, respectively. For measurements of compound-induced cytotoxicty, results from wells containing various compound concentrations and uninfected cells were compared to the average of uninfected cells without compound treatment. Percent of cells remaining is determined by the following formula: Percent of cells remaining=(compound-treated uninfected cells/untreated uninfected cells)×100.
A level of percent of cells remaining of 79% or less indicates a significant level of direct compound-induced cytotoxicity for the compound at that concentration. When this condition occurs the results from the compound-treated infected wells at this concentration are not included in the calculation of IC50.
For measurements of compound antiviral activity, results from wells containing various compound concentrations and infected cells are compared to the average of uninfected and infected cells without compound treatment. Percent inhibition of virus is determined by the following formula: Percent inhibition of virus=(1−((ave. untreated uninfected cells−treated infected cells)/(ave. untreated uninfected cells−ave. untreated infected cells)))×100

Compound: CC(C)C1=C2[C@H]3CC[C@@H]4[C@@]5(C)CC[C@H](OC(=O)CC(C)(C)C(=O)O)C(C)(C)[C@@H]5CC[C@@]4(C)[C@]3(C)CC[C@@]2(/C=C/C(=O)N[C@H](C)c2ccc(Cl)cn2)CC1=O [Example 5, 4-(((3aS,5aR,5bR,7aR,9S,11aR,11bR,13aS)-3a-((E)-3-(((R)-1-(5-Chloropyridin-2-yl)ethyl)amino)-3-oxoprop-1-en-1-yl)-1-isopropyl-5a,5b,8,8,11a-pentamethyl-2-oxo-3,3a,4,5,5a,5b,6,7,7a,8,9,10,11,11a,1 b,12,13,13a-octadecahydro-2H-cyclopenta[a]chrysen-9-yl)oxy)-2,2-dimethyl-4-oxobutanoic acid]
- IC50: < 10 nM

Compound: C/C(=C\[C@@]12CC[C@]3(C)[C@H](CC[C@@H]4[C@@]5(C)CC[C@H](OC(=O)CC(C)(C)C(=O)O)C(C)(C)[C@@H]5CC[C@]43C)C1=C(C(C)C)C(=O)C2)C(=O)NC1(c2cccc(Cl)c2)CC1 [Example 29, 4-(((3aS,5aR,5bR,7aR,9S,11aR,11bR,13aS)-3a-((E)-3-((1-(3-Chlorophenyl)cyclopropyl)amino)-2-methyl-3-oxoprop-1-en-1-yl)-1-isopropyl-5a,5b,8,8,11a-pentamethyl-2-oxo-3,3a,4,5,5a,5b,6,7,7a,8,9,10,11,11a,11b,12,13,13a-octadecahydro-2H-cyclopenta[a]chrysen-9-yl)oxy)-2,2-dimethyl-4-oxobutanoic acid]
- IC50: 10 to 250 nM

Compound: CC(C)C1=C2[C@H]3CC[C@@H]4[C@@]5(C)CC[C@H](OC(=O)CC(C)(C)C(=O)O)C(C)(C)[C@@H]5CC[C@@]4(C)[C@]3(C)CC[C@@]2(/C=C/C(=O)O)CC1=O [Example 16, 4-(((3aS,5aR,5bR,7aR,9S,11aR,11bR,13aS)-3a-((E)-2-Carboxyvinyl)-1-isopropyl-5a,5b,8,8,11a-pentamethyl-2-oxo-3,3a,4,5,5a,5b,6,7,7a,8,9,10,11,11a,11b,12,13,13a-octadecahydro-2H-cyclopenta[a]chrysen-9-yl)oxy)-2,2-dimethyl-4-oxobutanoic acid]
- IC50: 250 to 10000 nM

Compound: CC(C)C1=C2[C@H]3CC[C@@H]4[C@@]5(C)CC[C@H](OC(=O)CC(C)(C)C(=O)O)C(C)(C)[C@@H]5CC[C@@]4(C)[C@]3(C)CC[C@@]2(/C=C/C(=O)N[C@@H](C)c2ccncn2)CC1=O [Example 8, 4-(((3aS,5aR,5bR,7aR,9S,11aR,11bR,13aS)-1-Isopropyl-5a,5b,8,8,11a-pentamethyl-2-oxo-3a-((E)-3-oxo-3-(((S)-1-(pyrimidin-4-yl)ethyl)amino)prop-1-en-1-yl)-3,3a,4,5,5a,5b,6,7,7a,8,9,10,11,11a,11b,12,13,13a-octadecahydro-2H-cyclopenta[a]chrysen-9-yl)oxy)-2,2-dimethyl-4-oxobutanoic acid]
- IC50: 10 to 250 nM

Compound: CC(C)C1=C2[C@H]3CC[C@@H]4[C@@]5(C)CC[C@H](OC(=O)CC(C)(C)C(=O)O)C(C)(C)[C@@H]5CC[C@@]4(C)[C@]3(C)CC[C@@]2(/C=C/C(=O)Nc2ccc(F)cc2)CC1=O [Example 17, 4-(((3aS,5aR,5bR,7aR,9S,11aR,11bR,13aS)-3a-((E)-3-((4-Fluorophenyl)amino)-3-oxoprop-1-en-1-yl)-1-isopropyl-5a,5b,8,8,11a-pentamethyl-2-oxo-3,3a,4,5,5a,5b,6,7,7a,8,9,10,11,11a,11b,12,13,13a-octadecahydro-2H-cyclopenta[a]chrysen-9-yl)oxy)-2,2-dimethyl-4-oxobutanoic acid]
- IC50: 10 to 250 nM

Compound: CC(C)C1=C2[C@H]3CC[C@@H]4[C@@]5(C)CC[C@H](OC(=O)CC(C)(C)C(=O)O)C(C)(C)[C@@H]5CC[C@@]4(C)[C@]3(C)CC[C@@]2(/C=C/C(=O)Nc2ccc(Cl)cc2)CC1=O [Example 2, 4-(((3aS,5aR,5bR,7aR,9S,11aR,11bR,13aS)-3a-((E)-3-((4-Chlorophenyl)amino)-3-oxoprop-1-en-1-yl)-1-isopropyl-5a,5b,8,8,11a-pentamethyl-2-oxo-3,3a,4,5,5a,5b,6,7,7a,8,9,10,11,11a,11b,12,13,13a-octadecahydro-2H-cyclopenta[a]chrysen-9-yl)oxy)-2,2-dimethyl-4-oxobutanoic acid]
- IC50: 10 to 250 nM

Compound: CC(C)C1=C2[C@H]3CC[C@@H]4[C@@]5(C)CC[C@H](OC(=O)CC(C)(C)C(=O)O)C(C)(C)[C@@H]5CC[C@@]4(C)[C@]3(C)CC[C@@]2(/C=C/C(=O)Nc2ccccn2)CC1=O [Example 19]
- IC50: 10 to 250 nM

Compound: CC(C)C1=C2[C@H]3CC[C@@H]4[C@@]5(C)CC[C@H](OC(=O)CC(C)(C)C(=O)O)C(C)(C)[C@@H]5CC[C@@]4(C)[C@]3(C)CC[C@@]2(/C=C/C(=O)NC2(c3ncccn3)CC2)CC1=O [Example 13, 4-(((3aS,5aR,5bR,7aR,9S,11aR,11bR,13aS)-1-isopropyl-5a,5b,8,8,11a-pentamethyl-2-oxo-3a-((E)-3-oxo-3-((1-(pyrimidin-2-yl)cyclopropyl)amino)prop-1-en-1-yl)-3,3a,4,5,5a,5b,6,7,7a,8,9,10,11,11a,11b,12,13,13a-octadecahydro-2H-cyclopenta[a]chrysen-9-yl)oxy)-2,2-dimethyl-4-oxobutanoic acid]
- IC50: 10 to 250 nM

Compound: CC(C)C1=C2[C@H]3CC[C@@H]4[C@@]5(C)CC[C@H](OC(=O)CC(C)(C)C(=O)O)C(C)(C)[C@@H]5CC[C@@]4(C)[C@]3(C)CC[C@@]2(/C=C/C(=O)N[C@H](C)c2ccccn2)CC1=O [Example 14, 4-(((3aS,5aR,5bR,7aR,9S,11aR,11bR,13aS)-1-Isopropyl-5a,5b,8,8,11a-pentamethyl-2-oxo-3a-((E)-3-oxo-3-(((R)-1-(pyridin-2-yl)ethyl)amino)prop-1-en-1-yl)-3,3a,4,5,5a,5b,6,7,7a,8,9,10,11,11a,11b,12,13,13a-octadecahydro-2H-cyclopenta[a]chrysen-9-yl)oxy)-2,2-dimethyl-4-oxobutanoic acid]
- IC50: 10 to 250 nM

Compound: CC(C)C1=C2[C@H]3CC[C@@H]4[C@@]5(C)CC[C@H](OC(=O)CC(C)(C)C(=O)O)C(C)(C)[C@@H]5CC[C@@]4(C)[C@]3(C)CC[C@@]2(/C=C/C(=O)N[C@@H](C)c2cccc(Cl)c2)CC1 [Example 34, 4-(((3aR,5aR,5bR,7aR,9S,11aR,11bR,13aS)-3a-((E)-3-(((S)-1-(3-Chlorophenyl)ethyl)amino)-3-oxoprop-1-en-1-yl)-1-isopropyl-5a,5b,8,8,11a-pentamethyl-3,3a,4,5,5a,5b,6,7,7a,8,9,10,11,11a,11b,12,13,13a-octadecahydro-2H-cyclopenta[a]chrysen-9-yl)oxy)-2,2-dimethyl-4-oxobutanoic acid]
- IC50: 10 to 250 nM

Compound: CC(C)C1=C2[C@H]3CC[C@@H]4[C@@]5(C)CC[C@H](OC(=O)CC(C)(C)C(=O)O)C(C)(C)[C@@H]5CC[C@@]4(C)[C@]3(C)CC[C@@]2(/C=C/C(=O)N[C@H](C)c2ccc(Cl)cc2)CC1=O [Example 4, 4-(((3aS,5aR,5bR,7aR,9S,11aR,11bR,13aS)-3a-((E)-3-(((R)-1-(4-Chlorophenyl)ethyl)amino)-3-oxoprop-1-en-1-yl)-1-isopropyl-5a,5b,8,8,11a-pentamethyl-2-oxo-3,3a,4,5,5a,5b,6,7,7a,8,9,10,11,11a,11b,12,13,13a-octadecahydro-2H-cyclopenta[a]chrysen-9-yl)oxy)-2,2-dimethyl-4-oxobutanoic acid]
- IC50: 10 to 250 nM

Compound: CC(C)C1=C2[C@H]3CC[C@@H]4[C@@]5(C)CC[C@H](OC(=O)CC(C)(C)C(=O)O)C(C)(C)[C@@H]5CC[C@@]4(C)[C@]3(C)CC[C@@]2(/C=C/C(=O)Nc2ccc(Cl)cn2)CC1=O [Example 18, 4-(((3aS,5aR,5bR,7aR,9S,11aR,11bR,13aS)-3a-((E)-3-((5-Chloropyridin-2-yl)amino)-3-oxoprop-1-en-1-yl)-1-isopropyl-5a,5b,8,8,11a-pentamethyl-2-oxo-3,3a,4,5,5a,5b,6,7,7a,8,9,10,11,11a,11b,12,13,13a-octadecahydro-2H-cyclopenta[a]chrysen-9-yl)oxy)-2,2-dimethyl-4-oxobutanoic acid]
- IC50: 10 to 250 nM

Compound: Cc1ccc(NC(=O)/C=C/[C@@]23CC[C@]4(C)[C@H](CC[C@@H]5[C@@]6(C)CC[C@H](OC(=O)CC(C)(C)C(=O)O)C(C)(C)[C@@H]6CC[C@]54C)C2=C(C(C)C)C(=O)C3)cc1 [Example 21, 4-(((3aS,5aR,5bR,7aR,9S,11aR,11bR,13aS)-1-Isopropyl-5a,5b,8,8,11a-pentamethyl-2-oxo-3a-((E)-3-oxo-3-(p-tolylamino)prop-1-en-1-yl)-3,3a,4,5,5a,5b,6,7,7a,8,9,10,11,11a,11b,12,13,13a-octadecahydro-2H-cyclopenta[a]chrysen-9-yl)oxy)-2,2-dimethyl-4-oxobutanoic acid]
- IC50: 10 to 250 nM
